The text below walks through data of patent US9586928B2 (The Scripps Research Institute, priority 2011, dated 2017).

One test has as its target T1, GST-RORγ (Homo sapiens, UniProt P51449).
T1 construct: 1 μg of GST-RORγ-LBD, 5 nM of [3H]T1317 as radioligand
T1 sequence (P51449 269-508 limits assumed): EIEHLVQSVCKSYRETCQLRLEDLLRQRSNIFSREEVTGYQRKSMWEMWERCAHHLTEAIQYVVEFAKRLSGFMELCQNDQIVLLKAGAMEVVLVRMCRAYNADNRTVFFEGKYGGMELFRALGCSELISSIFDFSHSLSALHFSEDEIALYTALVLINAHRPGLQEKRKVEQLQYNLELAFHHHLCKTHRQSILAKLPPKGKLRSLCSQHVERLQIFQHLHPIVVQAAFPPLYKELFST
The test is described as follows: RORγ scintillation proximity (SPA) radioligand binding assay, displacement of [3H]-T0901317. The settings on record: read-out: RORγ SPA % bound = % radiolabel bound; for remaining activity at 10 µM: 10 μM compound; for remaining activity at 1 µM: 1 μM compound (Table 2D). (In general: SPA uses beads or plates that emit light when radiolabelled molecules are held near them.)

For the next test, the target named is T2, RORγ (Homo sapiens, UniProt P51449).
T2 construct: expressed in transfected cells; host or cells: HEK293T
T2 sequence (P51449 269-508 limits assumed): T1 sequence (P51449 269-508 limits assumed)
The test can be described thus: Gal4-RORγ LBD / UAS luciferase cotransfection assay. The settings on record: 10 μM. The class given is cell-based.

The subject of the next test is VP16. The test can be described thus: Gal4 DBD-VP16 / UAS luciferase control assay. The class given is cell-based. The settings on record: 10 μM.

Description for VP16: The cells were treated with either DMSO or various compounds as indicated four hours after replating. Following additional 20 hour incubation, luciferase levels were assayed by one-step addition of 20 μL BriteLite (Perkin Elmer) and read using an Envision multilabel plate reader (Perkin Elmer).

For `OC(c1ccc(-c2ccc(CN3CCN(Cc4ccncc4)CC3)cc2)cc1F)(C(F)(F)F)C(F)(F)F` [Compound 105, 1,1,1,3,3,3-Hexafluoro-2-(3-fluoro-4′-((4-(pyridin-4-ylmethyl)piperazin-1-yl)methyl)-[1,1′-biphenyl]-4-yl)propan-2-ol], the remaining activity at 10 µM at GST-RORγ is 80%.
The same measure, in the same setting: next, `COc1cc(-c2ccc(CN3CCN(Cc4ccncc4)CC3)cc2)ccc1C(O)(C(F)(F)F)C(F)(F)F` [Compound 106, 1,1,1,3,3,3-Hexafluoro-2-(3-methoxy-4′-((4-(pyridin-4-ylmethyl)piperazin-1-yl)methyl)-[1,1′-biphenyl]-4-yl)propan-2-ol]: 40%.
Consider `Cc1cc(-c2ccc(CN3CCN(Cc4ccncc4)CC3)cc2)ccc1C(O)(C(F)(F)F)C(F)(F)F` [Compound 107, 1,1,1,3,3,3-Hexafluoro-2-(3-methyl-4′-((4-(pyridin-4-ylmethyl)piperazin-1-yl)methyl)-[1,1′-biphenyl]-4-yl)propan-2-ol], for which the remaining activity at 10 µM at GST-RORγ amounted to 100%.
In the case of `OC(c1ccc(-c2ccc(CN3CCN(Cc4c[nH]cn4)CC3)cc2)cc1)(C(F)(F)F)C(F)(F)F` [Compound 112, 2-(4′-((4-((1H-Imidazol-5-yl)methyl)piperazin-1-yl)methyl)-[1,1′-biphenyl]-4-yl)-1,1,1,3,3,3-hexafluoropropan-2-ol], the remaining activity at 10 µM on GST-RORγ came to 48%.
With `CC1CN(Cc2ccc(-c3ccc(C(O)(C(F)(F)F)C(F)(F)F)cc3)cc2)CCN1Cc1ccncc1` (stereo not shown) [Compound 117], the remaining activity at 10 µM at GST-RORγ stood at 20%.
Take `CC1CN(Cc2ccncc2)CCN1Cc1ccc(-c2ccc(C(O)(C(F)(F)F)C(F)(F)F)cc2)cc1` (stereo not shown) [Compound 118]: at GST-RORγ, the remaining activity at 10 µM turned out to be 20%.
On to `O=C1CN(Cc2ccc(-c3ccc(C(O)(C(F)(F)F)C(F)(F)F)cc3)cc2)CCN1Cc1ccncc1` [Compound 119], for which the remaining activity at 10 µM at GST-RORγ was determined as 15%.
As to `O=C1CN(Cc2ccncc2)CCN1Cc1ccc(-c2ccc(C(O)(C(F)(F)F)C(F)(F)F)cc2)cc1` [Compound 120], the remaining activity at 10 µM at GST-RORγ was 15%.
Regarding `O=C(Nc1ccc(-c2ccc(C(O)(C(F)(F)F)C(F)(F)F)cc2)cc1)N1CCN(Cc2ccncc2)CC1` [Compound 136, N-(4′-(1,1,1,3,3,3-hexafluoro-2-hydroxypropan-2-yl)-[1,1′-biphenyl]-4-yl)-4-(pyridin-4-ylmethyl)piperazine-1-carboxamide], the remaining activity at 1 µM at GST-RORγ was 76%.
Still for that read-out and setting: in the case of `O=C(Cc1ccc(-c2ccc(C(O)(C(F)(F)F)C(F)(F)F)cc2)cc1)N1CCN(Cc2ccncc2)CC1` [Compound 137, 2-(4′-(1,1,1,3,3,3-hexafluoro-2-hydroxypropan-2-yl)-[1,1′-biphenyl]-4-yl)-1-(4-(pyridin-4-ylmethyl)piperazin-1-yl)ethanone] it was 81%; in that of `O=S(=O)(c1ccc(-c2ccc(C(O)(C(F)(F)F)C(F)(F)F)cc2)cc1)N1CCN(Cc2ccncc2)CC1` [Compound 138, 1,1,1,3,3,3-hexafluoro-2-(4′-((4-(pyridin-4-ylmethyl)piperazin-1-yl)sulfonyl)-[1,1′-biphenyl]-4-yl)propan-2-ol], 68%.
Still for that read-out and setting: in the case of `OC(c1ccc(-c2ccc3c(c2)CCC3N2CCN(Cc3ccncc3)CC2)cc1)(C(F)(F)F)C(F)(F)F` (stereo not shown) [Compound 139, 1,1,1,3,3,3-hexafluoro-2-(4-(1-(4-(pyridin-4-ylmethyl)piperazin-1-yl)-2,3-dihydro-H I-inden-5-yl)phenyl)propan-2-ol] it was 59%; in that of `CC(c1ccc(-c2ccc(C(O)(C(F)(F)F)C(F)(F)F)cc2)cc1)N1CCN(Cc2ccncc2)CC1` (stereo not shown) [Compound 140, 1,1,1,3,3,3-hexafluoro-2-(4′-(1-(4-(pyridin-4-ylmethyl)piperazin-1-yl)ethyl)-[1,1′-biphenyl]-4-yl)propan-2-ol], 74%; in that of `CCC(c1ccc(-c2ccc(C(O)(C(F)(F)F)C(F)(F)F)cc2)cc1)N1CCN(Cc2ccncc2)CC1` (stereo not shown) [Example 141, 1,1,1,3,3,3-hexafluoro-2-(4′-(1-(4-(pyridin-4-ylmethyl)piperazin-1-yl)propyl)-[1,1′-biphenyl]-4-yl)propan-2-ol], 74%.
In the case of `O=S(=O)(c1cccs1)N1CCN(Cc2ccc(-c3ccc(C(O)(C(F)(F)F)C(F)(F)F)cc3)cc2)CC1` [Example 145, 1,1,1,3,3,3-Hexafluoro-2-(4′-((4-(thiophen-2-ylsulfonyl)piperazin-1-yl)methyl)-[1,1′-biphenyl]-4-yl)propan-2-ol], the “RORγ repression, fold change over DMSO” value on RORγ came to 3.0 fold change over DMSO. Besides, the “VP16 repression, fold change over DMSO” value with VP16 was determined as 3.0 fold change over DMSO.
On to `O=S(=O)(c1ccc(C(F)(F)F)cc1)N1CCN(Cc2ccc(-c3ccc(C(O)(C(F)(F)F)C(F)(F)F)cc3)cc2)CC1` [Example 146, 1,1,1,3,3,3-Hexafluoro-2-(4′-((4-((4-(trifluoromethyl)phenyl)sulfonyl)piperazin-1-yl)methyl)-[1,1′-biphenyl]-4-yl)propan-2-ol], for which the “RORγ repression, fold change over DMSO” value at RORγ turned out to be 0.9 fold change over DMSO. Besides, in the test on VP16, the “VP16 repression, fold change over DMSO” value came out at 0.7 fold change over DMSO.
With `O=S(=O)(c1ccc(CBr)cc1)N1CCN(Cc2ccc(-c3ccc(C(O)(C(F)(F)F)C(F)(F)F)cc3)cc2)CC1` [Example 147, 2-(4′-((4-((4-(Bromomethyl)phenyl)sulfonyl)piperazin-1-yl)methyl)-[1,1′-biphenyl]-4-yl)-1,1,1,3,3,3-hexafluoropropan-2-ol], on RORγ, the “RORγ repression, fold change over DMSO” value amounted to 0.5 fold change over DMSO. In addition, the “VP16 repression, fold change over DMSO” value in the test with VP16 is reported as 0.5 fold change over DMSO.
With `Cc1ccc([N+](=O)[O-])cc1S(=O)(=O)N1CCN(Cc2ccc(-c3ccc(C(O)(C(F)(F)F)C(F)(F)F)cc3)cc2)CC1` [Example 148, 1,1,1,3,33-Hexafluoro-2-(4′-((4-((2-methyl-5-nitrophenyl)sulfonyl)piperazin-1-yl)methyl)-[1,1′-biphenyl]-4-yl)propan-2-ol], the “RORγ repression, fold change over DMSO” value at RORγ was 0.4 fold change over DMSO. The “VP16 repression, fold change over DMSO” value in the test with VP16 was determined as 1.0 fold change over DMSO.
The like results for `O=[N+]([O-])c1ccc(S(=O)(=O)N2CCN(Cc3ccc(-c4ccc(C(O)(C(F)(F)F)C(F)(F)F)cc4)cc3)CC2)cc1` [Example 149, 1,1,1,3,3,3-Hexafluoro-2-(4′-((4-((4-nitrophenyl)sulfonyl)piperazin-1-yl)methyl)-[1,1′-biphenyl]-4-yl)propan-2-ol] were, in that order, 0.5 fold change over DMSO and 0.7 fold change over DMSO.
With `O=C(OCc1ccccc1)N1CCN(Cc2ccc(-c3ccc(C(O)(C(F)(F)F)C(F)(F)F)cc3)cc2)CC1` [Example 150, Benzyl 4-((4′-(1,1,1,3,3,3-hexafluoro-2-hydroxypropan-2-yl)-[1,1′-biphenyl]-4-yl)methyl)piperazine-1-carboxylate], the “RORγ repression, fold change over DMSO” value at RORγ came to 0.5 fold change over DMSO. In addition, the “VP16 repression, fold change over DMSO” value in the test on VP16 came to 0.9 fold change over DMSO.
In the case of `O=C(Oc1ccc([N+](=O)[O-])cc1)N1CCN(Cc2ccc(-c3ccc(C(O)(C(F)(F)F)C(F)(F)F)cc3)cc2)CC1` [Example 151, 4-Nitrophenyl 4-((4′-(1,1,1,3,3,3-hexafluoro-2-hydroxypropan-2-yl)-[1,1′-biphenyl]-4-yl)methyl)piperazine-1-carboxylate], the “RORγ repression, fold change over DMSO” value at RORγ came out at 0.6 fold change over DMSO. Moreover, in the test with VP16, the “VP16 repression, fold change over DMSO” value was 0.6 fold change over DMSO.
